Inhibition data for 90 compounds are collected here from PubChem BioAssay AID1288 (Columbia University Molecular Screening Center, 2008).

Each structure is given as a SMILES string. Calls of active or inactive are those of the source. No rule for the calls is given here.

What is called inhibition is the relative decrease from the control value, in per cent.

The experiment is described as follows: inhibitors of TNFa-induced E-selectin expression, confirmation, imaging, retest plus dose response, cell count (AID 1288).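 Also: 0% = stimulated vehicle wells and 100% = unstimulated vehicle wells.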 The following applies: human endothelial cells, TNFa-induced E-selectin, imaging; at 2 µM; active compounds read high.
For `CCOC(=O)N1CCN(C(=S)NC(=O)c2cncc(Br)c2)CC1`, the inhibition was 19.8% (inactive).

As to `CN(Cc1ccccc1)C(=S)NC(=O)C1CCCCC1`, the inhibition was 8.28% (inactive).

On to `Cn1c(CCNC(=O)c2ccc(Cl)c(Cl)c2)nnc1SCc1ccc(Cl)c(Cl)c1`, for which the inhibition is 6.96% (inactive).

Turning to `CC12CCC3(CO)COC(c4ccccc4O1)C2C3` (stereo not given), the inhibition is 13.6% (inactive).

`COc1ccc(Cl)cc1NC(=S)NCc1ccco1`: the inhibition was 2.52% (inactive).

Regarding `Cc1cc(C)c2cc(CN(Cc3ccc4c(c3)OCO4)Cc3nnnn3Cc3ccco3)c(=O)[nH]c2c1`, the inhibition was -1.09% (inactive).

Consider `COCCCNC(=O)COc1ccc(S(=O)(=O)NCc2ccccc2)cc1Cl`, for which the inhibition was 7.46% (inactive).

Turning to `O=C(CN1CCN(Cc2ccccc2Cl)C1=O)NCc1ccco1`, the inhibition is 8.68% (inactive).

Consider `Cc1ccccc1-n1ccnc1SCC(=O)O`, for which the inhibition was 23% (inactive).

As to `CCCc1[nH]nc2c1C(c1ccc(O)c(OC)c1)C(C#N)=C(N)O2` (stereo not given), the inhibition is 16.6% (inactive).

Consider `CC(=O)c1ccc(NC(=O)Nc2ccc([N+](=O)[O-])cc2C)cc1`, for which the inhibition is 48% (inactive).

On to `CN(C)S(=O)(=O)N1CCN(CC(=O)Nc2cc(Cl)ccc2Cl)CC1`, for which the inhibition is -3.1% (inactive).

On to `Nn1c(CN2CCCCC2)nc2ccccc2c1=O`, for which the inhibition was 12.2% (inactive).

In the case of `O=C(O)CSC1c2ccccc2C(=O)N1Cc1ccccc1` (stereo not given), the inhibition was 2.25% (inactive).

Take `CCOC(=O)c1ccc(Nc2cc(C)nc(N3CCOCC3)n2)cc1`: the inhibition is 5.21% (inactive).

For the compound `Cc1ccc(C2CC(=O)N(c3ccc(F)cc3)C3=C2C(=O)CCC3)cc1` (stereo not given), the inhibition was 4.74% (inactive).

As for `Cc1c(NC(=O)CN2CC(C)OC(C)C2)c(=O)n(-c2ccccc2)n1C` (stereo not given), the inhibition was 35.8% (inactive).

Turning to `COc1ccccc1C(=O)NC(CCSC)C(=O)OCC(=O)NC(=O)NCc1ccco1` (stereo not given), the inhibition was 28% (inactive).

In the case of `O=C1c2cccc(OCC(=O)N3CCCc4ccccc43)c2CCN1Cc1ccc(Br)cc1`, the inhibition is -5.27% (inactive).

`COC(=O)c1cc2ccsc2n1Cc1nc(-c2cccc(Cl)c2)oc1C`: the inhibition was -2.86% (inactive).

Regarding `CCOC(=O)C[n+]1c(C)sc2ccc(OC)cc21`, the inhibition was 5.31% (inactive).

As for `Cc1cc(C)cc(NC(=S)NC2CC3CCCC(C2)N3C2CC2)c1` (stereo not given), the inhibition is 0.55% (inactive).

Regarding `O=S(=O)(Nc1ccccn1)c1ccc(Cl)c2ccccc12`, the inhibition was 9.42% (inactive).

Take `CCCn1c(SCC(=O)N2c3ccccc3Sc3ccccc32)nc2c1c(=O)n(C)c(=O)n2C`: the inhibition is -8.34% (inactive).

Take `CCNC(=O)CN(CCc1ccccc1)S(C)(=O)=O`: the inhibition was 7.43% (inactive).

On to `COCCn1c(SCC(=O)c2ccc(Cl)cc2)nnc1C(C)C`, for which the inhibition is -5.2% (inactive).

As to `O=C(c1ccccc1F)N1CCN(c2ccccc2F)CC1`, the inhibition is 27.8% (inactive).

In the case of `COc1ccc(C(=O)NCC(C)C)c(OC)c1`, the inhibition is 24.1% (inactive).

Turning to `CCC(C)c1ccccc1OCCCCN1CCCC1` (stereo not given), the inhibition is -2.07% (inactive).

Consider `CCOC(=O)C(CC)n1nc(C)n2c(cc3sccc32)c1=O` (stereo not given), for which the inhibition is 16.1% (inactive).

Consider `Fc1cccc(F)c1CSc1nc2ccccc2[nH]1`, for which the inhibition is 3.56% (inactive).

As to `CCOc1cc(N2CCOCC2)c(OCC)cc1NS(=O)(=O)c1ccc(Cl)s1`, the inhibition was 6.76% (inactive).

As for `Cc1nc2c(sc3nc4c(cc32)COC(C)(C)C4)c(=O)o1`, the inhibition was 6.35% (inactive).

For the compound `CC(Oc1ccc(Cl)cc1Cl)C(=O)N(Cc1ccco1)C1CCS(=O)(=O)C1` (stereo not given), the inhibition was 33.5% (inactive).

For `CC(C)C(=O)Nc1cc(=O)[nH]c2ncnn12`, the inhibition is 10.9% (inactive).

On to `C#CCN1C(=O)C(O)(CC(=O)c2cccc(OC)c2)c2ccccc21` (stereo not given), for which the inhibition is 16% (inactive).

Regarding `Cc1ccn2cc(CCNS(=O)(=O)c3ccc(F)c(C(F)(F)F)c3)nc2c1`, the inhibition is 0.82% (inactive).

`CCOC(=O)N(c1ccccc1)P1(=S)OCCO1`: the inhibition was 10.4% (inactive).

As to `N#CCc1ccc(NS(=O)(=O)c2cccs2)cc1`, the inhibition was 7.74% (inactive).

For `O=c1ccc2ccc(OCc3nnc(-c4ccccc4Br)o3)cc2o1`, the inhibition is 2.48% (inactive).

`COc1ccc2c(c1)C1CC(C)(NC(=O)C1S(=O)(=O)c1ccc(F)cc1)O2` (stereo not given): the inhibition was 28.9% (inactive).

In the case of `COc1cccc(/C=N/NC(=O)c2c(-c3ccccc3)noc2C)c1`, the inhibition is 4.18% (inactive).

Turning to `CN1CCCN(S(=O)(=O)c2ccc(Cl)c(Cl)c2)CC1`, the inhibition is 0.45% (inactive).

For `CCOC(=O)c1c(NC(=O)COC)sc2c1CCCC2`, the inhibition is 17.5% (inactive).

As to `O=C(c1cnccn1)N1CCN(c2ccccc2)CC1`, the inhibition is 30.4% (inactive).

On to `O=C(Nc1nnc(-c2ccco2)s1)C1CC1`, for which the inhibition is 1.62% (inactive).

Turning to `Cc1ccc(NC(=O)CSc2nc3ccccc3c3nc(CCc4c(C)n[nH]c4C)nn23)cc1F`, the inhibition was 47.2% (inactive).

Turning to `CCCCN(CCCC)S(=O)(=O)c1ccc(NC(=O)c2cccs2)cc1`, the inhibition was -4.73% (inactive).

`Cc1nn(-c2ccccc2)c(Cl)c1CN(C(=O)CCl)c1cccc2ccccc12`: the inhibition was 14.8% (inactive).

As to `CCC(C(=O)N1CCc2cc(OC)c(OC)cc2C1)c1ccccc1` (stereo not given), the inhibition was -0.78% (inactive).

Consider `CC(C)C(C(=O)O)N1CCS(=O)(=O)CC1` (stereo not given), for which the inhibition was 7.68% (inactive).

As to `COc1ccc(NC(=O)c2cccnc2Cl)c(S(=O)(=O)N2CCOCC2)c1`, the inhibition is 6.27% (inactive).

`COc1ccc(-c2cc(C)nc(SCc3cccc(C(=O)O)c3)n2)cc1`: the inhibition was 16.2% (inactive).

Turning to `Cc1ccc(SCCC(=O)Nc2ccccc2C(=O)NC(C)C)cc1`, the inhibition was 12.3% (inactive).

With `COc1ccccc1N(Cc1ccccc1)S(=O)(=O)c1cccc(C(=O)Nc2ccc(C(C)=O)cc2)c1`, the inhibition is 14.8% (inactive).

For the compound `Cc1cccc(N2CCN(c3cccc(C)c3)C2c2cccnc2)c1`, the inhibition is 5.98% (inactive).

With `C=CCNC(=S)NNC(=O)c1ccc(OCC)cc1`, the inhibition is 1.76% (inactive).

`CCCCN(C(=O)c1cc(OC)c(OC)c(OC)c1)C1=CC2CCC(C1)N2C` (stereo not given): the inhibition is 8.59% (inactive).

For `CC(C)Cc1nnc(NS(C)(=O)=O)s1`, the inhibition was 4.19% (inactive).

With `CCCn1nnc(NC(=O)c2cccc(OCC(C)C)c2)n1`, the inhibition was 27.2% (inactive).

In the case of `Brc1ccc(C2=CC(c3cccs3)n3ncnc3N2)cc1` (stereo not given), the inhibition was 13.5% (inactive).

As to `O=C(Nc1ccc(-c2nc3cccnc3s2)cc1)c1ccc(Br)o1`, the inhibition is 5.96% (inactive).

In the case of `O=C(CCc1ccccc1)NCCC1=CCCCC1`, the inhibition is 6.52% (inactive).

Take `Cc1cc(NC(=O)CSc2nnc3c4c(C)c(C)sc4ncn23)no1`: the inhibition was 14.7% (inactive).

As to `Cn1c(=O)[nH]c(=O)c2c1nc(N1CCCCC1)n2CCCSc1nnnn1-c1ccccc1`, the inhibition was 10.1% (inactive).

`CCOCc1nnc(NC(=O)CCc2ccccc2)s1`: the inhibition was 9.8% (inactive).

Consider `COc1ccccc1OCCn1cc(C(=O)c2ccco2)c2ccccc21`, for which the inhibition was 12.3% (inactive).

`O=C(c1ccc(Cl)cc1)N1CCCC(c2ccccc2)=N1`: the inhibition is 10% (inactive).

On to `Cc1cc(N2CCCCC2)nc(NCc2ccccc2)n1`, for which the inhibition was 36.1% (inactive).

Regarding `COc1ccccc1NC(=O)c1ccc(S(=O)(=O)N2CCCC2)cc1`, the inhibition was 3.22% (inactive).

In the case of `Cc1cc(C(=O)Nc2nc3c(s2)CCCC3)no1`, the inhibition is 6.49% (inactive).

Take `O=C(NN=C1CCN(Cc2ccccc2)CC1)c1ccccc1`: the inhibition is 9.36% (inactive).

As to `CC(C)CC1NC(=O)N(CC(=O)N2CCN(S(=O)(=O)c3ccc(Cl)cc3)CC2)C1=O` (stereo not given), the inhibition is -2.35% (inactive).

Consider `O=C(O)CCC(=O)Nc1ccc(Br)c(Cl)c1`, for which the inhibition was -3.06% (inactive).

Take `Cc1ccc(/C=C/C(=O)O)cc1S(=O)(=O)NCCO`: the inhibition was 1.34% (inactive).

As to `C/C(=N\Nc1cc(-c2ccccc2)nc(-c2ccccc2)n1)c1ccc(O)c(C)c1`, the inhibition was 5.91% (inactive).

As to `COc1ccc(OCC(=O)N2CCN(Cc3c[nH]c4ccccc34)CC2)cc1`, the inhibition is -1.94% (inactive).

On to `O=C1CC(Sc2nnc(-c3ccccc3O)o2)C(=O)N1c1ccccc1` (stereo not given), for which the inhibition was 9.02% (inactive).

For `CC(C)(CO)NCC(O)Cn1cc(C=O)c2ccccc21` (stereo not given), the inhibition is -5.31% (inactive).

As to `CC(C)C(c1nnnn1Cc1ccc2c(c1)OCO2)N1CCN(C)CC1` (stereo not given), the inhibition is 6.53% (inactive).

As for `COc1ccc(Nc2nc(C)cc(C)c2C#N)cc1OC`, the inhibition is 6.96% (inactive).

For the compound `CC(/C=C/c1ccco1)=N\NC(=O)c1cc(C)[nH]n1`, the inhibition is 12% (inactive).

For the compound `c1ccc(NC2=NCCCCS2)cc1`, the inhibition was 15.9% (inactive).

In the case of `O=C(NC(=O)c1cccc(OC(F)(F)C(F)F)c1)OC1CCS(=O)(=O)C1` (stereo not given), the inhibition was 22.5% (inactive).

Take `COc1ccc(N(CC(=O)Nc2ccc3c(c2)OCO3)S(C)(=O)=O)c(OC)c1`: the inhibition is -1.1% (inactive).

For `CC(OC(=O)CCN1C(=O)c2cccc([N+](=O)[O-])c2C1=O)C(=O)Nc1cc(Cl)cc(Cl)c1` (stereo not given), the inhibition was 36.2% (inactive).

Regarding `CCN(CC)S(=O)(=O)c1ccc(-c2nnc(SCC(=O)Nc3ccc(OC)cc3)o2)cc1`, the inhibition was 23.9% (inactive).

On to `NC(=O)C1CCCN(C(=S)Nc2cccc3ccccc23)C1` (stereo not given), for which the inhibition is 9.37% (inactive).

With `Cc1cc2cc(NC(=O)c3ccco3)ccc2[nH]1`, the inhibition was -3.69% (inactive).

As to `COc1ccc(NC(=O)CN(C)CC(=O)Nc2ccccc2SC)cc1`, the inhibition was -3.18% (inactive).
